Article PMC8373216, “Development and Preclinical Evaluation of New Inhaled Lipoglycopeptides for the Treatment of Persistent Pulmonary Methicillin-Resistant Staphylococcus aureus Infections” (Antimicrobial Agents and Chemotherapy, 2021)
Where two headings read alike, the source gives them in different places.

Experiments:
THP-1 cells = experiment: In vitro cellular accumulation; type: cell-based; details: 24 h, 10 to 75 μg/ml
Method: THP-1 cells (TIB-202; ATCC, Manassas, VA; 1 × 10^6 cells/well) were differentiated into macrophages by incubating in 10% fetal bovine serum (FBS; HyClone, Marlborough, MA) supplemented RPMI 1640 medium (HyClone) with 50 ng/ml of phorbol 12-myristate 13-acetate (PMA; Sigma-Aldrich, St. Louis, MO) for 24 h. After a 24 h incubation in fresh medium, cells were treated with RV lipoglycopeptides or comparator drugs at target concentrations in the range of 10 to 75 μg/ml and incubated at 37°C for 24 h. For sample collection, mixtures of cells and medium were transferred into a 1.5-ml microcentrifuge tube followed by centrifugation at 330 × g for 8 min at 4°C. The supernatant was collected to measure the extracellular portion. After washing three times using 1 ml of tris-buffered saline (TBS, 1× solution, pH 7.4, Fisher BioReagents, Waltham, MA), the cell pellet was resuspended in TBS to measure the cellular drug concentration. To confirm mass balance, drug concentrations were also measured from the supernatant and an organic solvent mixture (30% acetonitrile in water) that was used to extract residual drug from the empty wells after the cell mixture was removed. […] Cellular accumulation was expressed as μg of drug per the mass of cell protein measured using a Pierce BCA protein assay kit (Thermo Scientific, Waltham, MA).

[1] = type: physicochemical; details: pH 8
Method: (§1) 40 to the primary metabolite.
(§2) 41 percent degradation is defined as follows:
(§3) [LLLLPPLL ] + [MMPPPPDDMM DDMMDDPPPP ]
(§4) 45 Enzymes studied include :
(§5) 108 Table S1: Enzyme hydrolysis of RV62 and RV94 was measured as a function of time in PBS (pH 8) at 37
(§6) 109 °C. Control samples in the absence of enzyme were included as […]. Samples were analyzed
(§7) 110 by HPLC detecting the parent RV derivative (RV62 or RV94).
(§8) RV Percent RV derivative remaining in HPLC chromatograph, % […]

[2] = target: T1, Protease from Bacillus Lichenformis (Bacillus licheniformis, UniProt P00780); experiment: Enzyme hydrolysis; type: in vitro ADME; details: Bacillus Lichenformis protease 5 U/mL
T1 construct: purchased Sigma Aldrich P5380; host or cells: Bacillus licheniformis
T1 sequence (P00780 106-379): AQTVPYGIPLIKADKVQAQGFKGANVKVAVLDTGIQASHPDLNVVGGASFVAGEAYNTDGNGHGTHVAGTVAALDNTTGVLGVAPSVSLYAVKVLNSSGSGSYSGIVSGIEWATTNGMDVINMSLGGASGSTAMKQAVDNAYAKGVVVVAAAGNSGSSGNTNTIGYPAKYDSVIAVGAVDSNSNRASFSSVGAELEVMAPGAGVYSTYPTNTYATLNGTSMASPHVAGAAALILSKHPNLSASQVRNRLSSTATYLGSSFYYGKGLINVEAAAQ
Method: as §1, §2, §3, §4, §5, §6, §7, §8

Protease from Papain = target: T2, Protease from Papain (Carica papaya, UniProt P00784); experiment: Enzyme hydrolysis; type: in vitro ADME; details: Papain 5 U/mL
T2 construct: purchased Sigma Aldrich P4762; host or cells: papaya latex
T2 sequence (P00784 134-345): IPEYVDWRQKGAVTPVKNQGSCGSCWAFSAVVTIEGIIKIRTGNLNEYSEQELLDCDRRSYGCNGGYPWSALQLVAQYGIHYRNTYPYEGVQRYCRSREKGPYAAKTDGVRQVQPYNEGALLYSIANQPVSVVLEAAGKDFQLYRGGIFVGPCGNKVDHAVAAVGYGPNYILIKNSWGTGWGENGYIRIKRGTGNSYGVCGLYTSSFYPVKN
Method: as §1, §2, §3, §4, §5, §6, §7, §8

## CCCCCCCCCCNC(=O)CNC1(C)CC(OC2C(Oc3c4cc5cc3Oc3ccc(cc3Cl)C(O)C3NC(=O)C(NC(=O)C5NC(=O)C(CC(N)=O)NC(=O)C(NC(=O)C(CC(C)C)NC)C(O)c5ccc(c(Cl)c5)O4)c4ccc(O)c(c4)-c4c(O)cc(O)cc4C(C(=O)O)NC3=O)OC(CO)C(O)C2O)OC(C)C1O (centres unmarked) [RV94]
THP-1 cells
  Cellular accumulation, fold improvement over telavancin: 4 fold
  Cellular accumulation, fold improvement over vancomycin: 2 fold
[1]; 0 h
  Percent RV derivative remaining in HPLC chromatograph: 99.74%
[1]; 1 h
  Percent RV derivative remaining in HPLC chromatograph: 99.54%
[1]; 24 h
  Percent RV derivative remaining in HPLC chromatograph: 98.89%
[2]; 1 h
  Percent RV derivative remaining in HPLC chromatograph: 99.47%
[2]; 24 h
  Percent RV derivative remaining in HPLC chromatograph: 99.43%
[2]; PBS pH 8, 37 °C, 0 h
  Percent RV derivative remaining in HPLC chromatograph: 99.76%
Protease from Papain; 1 h
  Percent RV derivative remaining in HPLC chromatograph: 99.39%
Protease from Papain; 24 h
  Percent RV derivative remaining in HPLC chromatograph: 98.31%
Protease from Papain; PBS pH 8, 37 °C, 0 h
  Percent RV derivative remaining in HPLC chromatograph: 99.46%
